Results reported in patent publication US20240173389A1, “Compositions and Methods For Reducing Immune Intolerance” (LAPIX THERAPEUTICS, INC., priority 2021, published 2024).

Columns and labels:
TLR2 = test: TNF-α production by splenocytes in response to TLR2 ligand PGN; assay type: cell-based, C57BL/6 mice; conditions: 48 hours, OPLT 1.85 μg/ml, dexamethasone 100 μg/ml, rapamycin 625 μg/ml
Protocol: (§1) OPLT was dissolved in sterile PBS at 100 μM, and pH was adjusted to approximately 7.5. Splenocytes from naïve C57BL/6 mice were stained with CFSE, prepared, cultured, and dosed. Cells were seeded at 2×10^5 cells/well.
(§2) To evaluate the effects of OPLT on cytokine production by splenocytes in response to different TLR ligands, splenocytes were incubated with one of the following TLR ligands in triplicate: PGN, LPS, ODN CPG, dsRNA, or ssRNA, as per group assignment. Cells were then treated as follows: • Control: No treatment; • OPLT: Cells were dosed with 1.85 μg/ml; • Dexamethasone: Cells were dosed with 100 μg/ml; • Rapamycin: Cells were dosed with 625 μg/ml. Cells were incubated for 48 hours before collecting the supernatant for TNF-α analysis.
(§3) The supernatant was collected for TNF-α analysis by ELISA.

TLR3 = test: TNF-α production by splenocytes in response to TLR3 ligand poly(I:C); assay type: cell-based, C57BL/6 mice; conditions: 48 hours, OPLT 1.85 μg/ml, dexamethasone 100 μg/ml, rapamycin 625 μg/ml
Protocol: as §1, §2, §3

TLR4 = test: TNF-α production by splenocytes in response to TLR4 ligand LPS; assay type: cell-based, C57BL/6 mice; conditions: 48 hours, OPLT 1.85 μg/ml, dexamethasone 100 μg/ml, rapamycin 625 μg/ml
Protocol: as §1, §2, §3

TLR7 = test: TNF-α production by splenocytes in response to TLR7 ligand ssPolyU; assay type: cell-based, C57BL/6 mice; conditions: 48 hours, OPLT 1.85 μg/ml, dexamethasone 100 μg/ml, rapamycin 625 μg/ml
Protocol: as §1, §2, §3

TLR9 = test: TNF-α production by splenocytes in response to TLR9 ligand ODN CpG; assay type: cell-based, C57BL/6 mice; conditions: 48 hours, OPLT 1.85 μg/ml, dexamethasone 100 μg/ml, rapamycin 625 μg/ml
Protocol: as §1, §2, §3

[1] = tested on: RAW264.7 mouse monocyte macrophage cells; test: SAR screen in RAW 264.7 cells with FVIII antigen, TNF-α ELISA (Example 5); assay type: cell-based; conditions: for TNF-α induction: liposomal (DMPC 70:30) or free form dosed 0.001-100 μM
Description: (§4) RAW264.7 mouse monocyte macrophage cells were exposed to an increasing concentration of selected compounds in the presence of human plasma-derived FVIII as a model antigen protein. TNF-α and TGF-β production were monitored.
All molecules were formulated in RPMI media in aseptic conditions. The pH was adjusted to approximately 7.5 before dosing cells. 1,2-dimyristoyl-sn-glycero-3-phosphocholine (DM PC):PS liposomes were made at 70:30 molar ratio to make “PS” liposomes.
(§5) RAW 264.7 cells were prepared, cultured, and dosed. Cells were seeded at 4×10^5 cells/well. OPLS, OPLT and L-homocysteic acid (LHA) were dosed at 100, 85, 70, 60, 50, 30, 10, 3, 1, 0.3, 0.1, 0.03 and 0.01 mM, or at 100, 85, 70, 60, 50, 30, 10, 3 and 1 mM, as indicated. O-Benzyl-L-serine (OBLS), S-phenyl-L-cysteine (SPLC), S-benzyl-L-cysteine (SBLC) and OBLT were dosed at 100, 85, 70, 60, 50, 30, 10, 3, 1, 0.3, 0.1, 0.03, 0.01, 0.003 and 0.001 μM. Finally, 100 μl of 40 μg/ml of FVIII as a sample antigen was added to each cell. LPS and free protein were used as positive and baseline controls, respectively. TNF-α and TGF-β ELISA were conducted as per the manufacturer's instructions (R & D Systems).

[2] = tested on: RAW264.7 mouse monocyte macrophage cells; test: SAR screen in RAW 264.7 cells with FVIII antigen, TGF-β ELISA (Example 5); assay type: cell-based; conditions: free compounds dosed in mM range
Description: as §4
All molecules were formulated in RPMI media in aseptic conditions. The pH was adjusted to approximately 7.5 before dosing cells. 1,2-dimyristoyl-sn-glycero-3-phosphocholine (DM PC):PS liposomes were made at 70:30 molar ratio to make “PS” liposomes. The remaining liposomes were made by hydrating a DMPC lipid layer in PBS buffer containing a test compound to give a final molar ratio of 70:30 of DMPC:test compound.
as §5

B57BL6 Mice = test: Anti-FVIII titer analysis in mice given FVIII co-mixed with compound SC QW 4 weeks, then FVIII re-challenge (Example 1); assay type: in vivo; conditions: end of treatment after one-week washout
Protocol: (§6) OPLT was dissolved in sterile PBS, and pH was adjusted to approximately 7.5. OPLS, a comparator compound, was dissolved in sterile PBS, and pH was adjusted to approximately 7.5. FVIII in PBS was used as a control. For treatment, FVIII was co-mixed with OPLT, OPLS or diluted in PBS before administration, as per group assignment for each animal. For re-challenge, FVIII was administered alone SC to all animals regardless of group assignment. […] For a head-to-head comparison, 5 mg/injection was selected for OPLT. FVIII was dosed at 1 μg/injection.
The study was conducted in two parts: a treatment phase and a re-challenge phase. The objective of the treatment phase was to test the ability of OPLT to reduce the immunogenicity of FVIII as an antigen compared to animals administered FVIII or FVIII+OPLS. Animals were injected with FVIII, FVIII+OPLT, or FVIII+OPLS SC QW for 4 weeks. Blood samples were collected for anti-FVIII titer analysis after a one-week washout period from the last dose. The objective of the re-challenge phase of the study was to evaluate the duration of tolerance. Animals that have been successfully tolerized toward FVIII will not mount a robust immune response towards FVIII upon subsequent exposure to FVIII. After the washout period, animals were injected with (1 μg) FVIII SC QW for 2 weeks. Blood samples were collected one week after each FVIII injection for anti-FVIII titer analysis.

FoxP3+/CD4+ T-cell = test: Ex vivo flow cytometry of splenocytes for FoxP3+/CD4+ T-cells after FVIII treatment period (Example 1); assay type: in vivo, mice
Protocol: as §6
One week after the last dose in the treatment period, one animal from each group was selected at random for ex vivo analysis of the T-cell population. Spleens were collected and a single-cell suspension was prepared for cellular phenotyping by flow cytometry. Cells were stained and gated for CD4+ T-cells. FoxP3 expression level was evaluated for each animal.

Splenocytes = test: Splenocyte culture with anti-CD3/anti-CD28 without antigen, Foxp3+/CD4+ by flow cytometry (Example 4); assay type: cell-based; conditions: 100 μM, three days, anti-CD3/anti-CD28, absence of any antigen
Protocol: Splenocytes were cultured for three days in presence of anti-CD3/anti-CD28 in presence of 100 μM PS or 100 μM OPLT in absence of any antigen.

Compound: C[C@@H]1C[C@H]2[C@@H]3CCC4=CC(=O)C=C[C@]4(C)[C@@]3(F)[C@@H](O)C[C@]2(C)[C@@]1(O)C(=O)CO [Dexamethasone, dexamethasone]
- TNF-α mean (TLR2; PGN 0 ng/ml): 0 pg/mL
- TNF-α mean (TLR2; PGN 1 ng/ml, CTL 730): 0 pg/mL
- TNF-α mean (TLR2; PGN 10 ng/ml, CTL 725): 0 pg/mL
- TNF-α mean (TLR2; PGN 100 ng/ml, CTL 834): 0 pg/mL
- TNF-α mean (TLR3; PolyI:C 0 ng/ml): 0 pg/mL
- TNF-α mean (TLR3; PolyI:C 1 ng/ml, CTL 0): 0 pg/mL
- TNF-α mean (TLR3; PolyI:C 10 ng/ml, CTL 109): 0 pg/mL
- TNF-α mean (TLR3; PolyI:C 100 ng/ml, CTL 162): 0 pg/mL
- TNF-α mean (TLR4; LPS 0 ng/ml): 0 pg/mL
- TNF-α mean (TLR4; LPS 1 ng/ml, CTL 143): 0 pg/mL
- TNF-α mean (TLR4; LPS 10 ng/ml, CTL 840): 0 pg/mL
- TNF-α mean (TLR4; LPS 100 ng/ml, CTL 1091): 0 pg/mL
- TNF-α mean (TLR7; Poly U 0 ng/ml): 0 pg/mL
- TNF-α mean (TLR7; Poly U 1 ng/ml, CTL 44): 0 pg/mL
- TNF-α mean (TLR7; Poly U 10 ng/ml, CTL 51): 0 pg/mL
- TNF-α mean (TLR7; Poly U 100 ng/ml, CTL 229): 41 pg/mL
- TNF-α mean (TLR9; ODN CpG 0 ng/ml): 0 pg/mL
- TNF-α mean (TLR9; ODN CpG 1 ng/ml, CTL 0): 0 pg/mL
- TNF-α mean (TLR9; ODN CpG 10 ng/ml, CTL 338): 0 pg/mL
- TNF-α mean (TLR9; ODN CpG 100 ng/ml, CTL 1220): 0 pg/mL

Compound: N[C@@H](CCS(=O)(=O)O)C(=O)O [LHA, L-homocysteic acid]
- TNF-α production (suppression) versus OPLS ([1]; free compounds dosed in mM range, FVIII antigen): more potent inhibitors of TNF-α
- TGF-β production versus OPLS [2]: more potent inducers of TGF-β

Compound: N[C@@H](COCc1ccccc1)C(=O)O [OBLS, O-Benzyl-L-serine]
- TNF-α induction ([1]; FVIII antigen): failed to induce TNF-α

Compound: N[C@@H](Cc1ccc(OCc2ccccc2)cc1)C(=O)O [OBLT, O-benzyl-L-tyrosine]
- TNF-α induction ([1]; FVIII antigen): failed to induce TNF-α

Compound: N[C@@H](COP(=O)(O)O)C(=O)O [OPLS, O-phospho-L-serine, reference compound]
- anti-FVIII titers versus FVIII control group (B57BL6 Mice): statistically lower than the FVIII control group
- animals that developed anti-FVIII antibodies (B57BL6 Mice; 5 mg/injection + FVIII SC QW 4 weeks, FVIII control 8/8): 5/8
- increase in FoxP3+/CD4+ compared to the FVIII alone group (FoxP3+/CD4+ T-cell; 5 mg/injection co-mixed with FVIII 1 μg SC QW 4 weeks, splenocytes of one animal per group one week after last dose): 66%
- FoxP3+/CD4+ T-cell (flow cytometry of splenocytes) (FoxP3+/CD4+ T-cell; 5 mg/injection co-mixed with FVIII SC QW 4 weeks, one animal per group, FVIII alone 2.94): 4.89

Compound: CO[C@H]1C[C@@H]2CC[C@@H](C)[C@@](O)(O2)C(=O)C(=O)N2CCCC[C@H]2C(=O)O[C@H]([C@H](C)C[C@@H]2CC[C@@H](O)[C@H](OC)C2)CC(=O)[C@H](C)/C=C(\C)[C@@H](O)[C@@H](OC)C(=O)[C@H](C)C[C@H](C)/C=C/C=C/C=C/1C [Rapamycin, rapamycin]
- TNF-α mean (TLR2; PGN 0 ng/ml): 0 pg/mL
- TNF-α mean (TLR2; PGN 1 ng/ml, CTL 730): 0 pg/mL
- TNF-α mean (TLR2; PGN 10 ng/ml, CTL 725): 0 pg/mL
- TNF-α mean (TLR2; PGN 100 ng/ml, CTL 834): 0 pg/mL
- TNF-α mean (TLR3; PolyI:C 0 ng/ml): 0 pg/mL
- TNF-α mean (TLR3; PolyI:C 1 ng/ml, CTL 0): 0 pg/mL
- TNF-α mean (TLR3; PolyI:C 10 ng/ml, CTL 109): 0 pg/mL
- TNF-α mean (TLR3; PolyI:C 100 ng/ml, CTL 162): 0 pg/mL
- TNF-α mean (TLR4; LPS 0 ng/ml): 0 pg/mL
- TNF-α mean (TLR4; LPS 1 ng/ml, CTL 143): 0 pg/mL
- TNF-α mean (TLR4; LPS 10 ng/ml, CTL 840): 0 pg/mL
- TNF-α mean (TLR4; LPS 100 ng/ml, CTL 1091): 0 pg/mL
- TNF-α mean (TLR7; Poly U 0 ng/ml): 0 pg/mL
- TNF-α mean (TLR7; Poly U 1 ng/ml, CTL 44): 0 pg/mL
- TNF-α mean (TLR7; Poly U 10 ng/ml, CTL 51): 29 pg/mL
- TNF-α mean (TLR7; Poly U 100 ng/ml, CTL 229): 14 pg/mL
- TNF-α mean (TLR9; ODN CpG 0 ng/ml): 0 pg/mL
- TNF-α mean (TLR9; ODN CpG 1 ng/ml, CTL 0): 0 pg/mL
- TNF-α mean (TLR9; ODN CpG 10 ng/ml, CTL 338): 0 pg/mL
- TNF-α mean (TLR9; ODN CpG 100 ng/ml, CTL 1220): 0 pg/mL

Compound: N[C@@H](CSCc1ccccc1)C(=O)O [SBLC, S-benzyl-L-cysteine]
- TNF-α induction ([1]; FVIII antigen): failed to induce TNF-α

Compound: N[C@@H](CSc1ccccc1)C(=O)O [SPLC, S-phenyl-L-cysteine]
- TNF-α induction ([1]; FVIII antigen): failed to induce TNF-α

Compound: phosphatidyl serine [PS, reference compound]
- increase in Foxp3+/CD4+ compared to control (Splenocytes): 76%
- fold difference between the ability of OPLS and PS to induce TNF-α ([1]; OPLS versus PS): 1,000 fold
